For data set [1], the target named is Canalicular multispecific organic anion transporter 1/Solute carrier organic anion transporter family member 1B1 (Homo sapiens, UniProt Q92887+Q9Y6L6). The experiment in a line: TP_TRANSPORTER: Transepithelial Transport (basal to apical) in OATP1B1/MRP2 double transfected MDCKII cells. The note with it: dog, mdck-ii. Format: functional, cell-based.
Data set [2] deals with T1, Broad substrate specificity ATP-binding cassette transporter ABCG2 (Homo sapiens, UniProt Q9UNQ0).
T1 sequence (Q9UNQ0 whole entry): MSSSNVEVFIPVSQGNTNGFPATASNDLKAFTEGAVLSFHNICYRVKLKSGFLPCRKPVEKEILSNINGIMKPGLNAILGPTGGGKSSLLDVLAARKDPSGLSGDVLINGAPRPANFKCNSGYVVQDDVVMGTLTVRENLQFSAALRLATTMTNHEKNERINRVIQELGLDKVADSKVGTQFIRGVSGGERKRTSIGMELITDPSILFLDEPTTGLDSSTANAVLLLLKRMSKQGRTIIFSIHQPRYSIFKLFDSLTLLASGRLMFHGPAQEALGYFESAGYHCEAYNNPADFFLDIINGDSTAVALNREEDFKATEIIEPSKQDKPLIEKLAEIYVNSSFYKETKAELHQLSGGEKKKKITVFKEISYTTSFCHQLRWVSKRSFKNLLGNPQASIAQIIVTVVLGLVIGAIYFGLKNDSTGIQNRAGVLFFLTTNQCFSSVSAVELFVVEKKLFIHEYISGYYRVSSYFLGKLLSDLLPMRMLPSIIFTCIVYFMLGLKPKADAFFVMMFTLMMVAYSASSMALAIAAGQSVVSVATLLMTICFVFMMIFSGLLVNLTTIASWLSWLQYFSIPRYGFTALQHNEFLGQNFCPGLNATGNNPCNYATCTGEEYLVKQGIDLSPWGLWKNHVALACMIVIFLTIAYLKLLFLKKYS
Nature of the data set: TP_TRANSPORTER: Transepithelial Transport (basal to apical) in OATP1B1/BCRP double transfected MDCKII cells. The note with it: dog, mdck-ii. Format: functional, cell-based.

This is an account of results in ChEMBL document CHEMBL2074035, “Identification of the hepatic efflux transporters of organic anions using double-transfected Madin-Darby canine kidney II cells expressing human organic anion-transporting polypeptide 1B1 (OATP1B1)/multidrug resistance-associated protein 2, OATP1B1/multidrug resistance 1, and OATP1B1/breast cancer …” (J Pharmacol Exp Ther, 2005).

Structures are written as SMILES.

For `C[C@]12CC[C@@H]3c4ccc(O)cc4CC[C@H]3[C@@H]1CC[C@@H]2O[C@@H]1O[C@H](C(=O)O)[C@@H](O)[C@H](O)[C@H]1O` [ESTRADIOL 17B GLUCURONIDE], the Activity result in data set [1] and in data set [2] was “substrate [(+)]” in each case.

In the case of `C[C@]12CC[C@@H]3c4ccc(OS(=O)(=O)O)cc4CC[C@H]3[C@@H]1CCC2=O` [ESTRONE SULFURIC ACID], the Activity result in data set [1] and in data set [2] was “substrate [(+)]” throughout.

Regarding `CC[C@H](C)C(=O)O[C@H]1C[C@H](O)C=C2C=C[C@H](C)[C@H](CC[C@@H](O)C[C@@H](O)CC(=O)O)[C@H]21` [PRAVASTATIN], the Activity result in data set [1] and in data set [2] was “substrate [(+)]” throughout.
